Like-named read-outs stand apart in the source and are kept apart here.
Columns and labels:
[1] = system: native PDE activity in P. falciparum particulate fractions; assay: PDE assay: cGMP hydrolysis by native parasite particulate fractions; format: biochemical, Plasmodium falciparum; conditions: for IC50: cGMP substrate; for effect on native PDE enzyme activity: parasite particulate fractions
Protocol: PDE activity in native parasite fractions was measured using a modification of a previously published method. Parasites were frozen in liquid nitrogen and stored at −80 °C until use. Parasites were resuspended in 500 μl of lysis buffer (20 mM hepes and 250 mM sucrose [pH 7.0]), subjected to five cycles of freeze–thaw in liquid nitrogen and pelleted at 100,000 g for 30 min. Particulate fractions were resuspended in lysis buffer containing EDTA-free protease inhibitors (Roche). PDE assays were carried out in triplicate wells of a 96-well plate in the presence of [^3H]-labelled cGMP (GE Healthcare) for 30 min at 37 °C. Reactions were terminated by boiling the plate for 1 min, followed by a 3-min centrifugation at 900 g. One unit of alkaline phosphatase was added to each well and incubated for 30 min at 37 °C. [^3H]-labelled guanosine was separated from the radiolabelled cGMP substrate using ion exchange (BioRad AG 1 × 8 resin). Supernatants containing the [^3H]-labelled guanosine product were added to scintillation fluid (Optiphase Supermix; Wallac). Scintillation was measured using a Wallac 1450 Microbeta Liquid Scintillation Counter (Perkin Elmer) and PDE activity was expressed in picomoles cGMP/minute/milligram protein. Inhibition assays were carried out in the presence of compounds dissolved in DMSO. PDE assays for specific activity and IC50 determination were carried out at a native lysate dilution that gave 30% cGMP/cAMP hydrolysis.
Supplementary file pbio.0060139.st001.doc: Table S1 The Effect of PDE Inhibitors on Particulate Fractions Isolated from P. falciparum Sexual and Asexual Blood Stage Parasites IC50 values (the concentration of compound that gave 50% inhibition of native PDE activity) are mean ± SEM in micromolar and were calculated using the Prism software package (GraphPad Software). Percentage inhibition data were fitted to a sigmoidal dose-response curve using nonlinear regression. n.d., not determined; >200, sufficient inhibition was not observed for an IC50 calculation. The specific activity of cGMP hydrolysis measured in the individual life cycle stages (at a substrate concentration of 0.82 μM) is listed in the lower row. Specific activity data are mean ± SEM in picomoles cGMP/minute/milligram. (43 KB DOC) Click here for additional data file.

[2] = system: P. falciparum gametocytes (WT / Pfrh3- control); assay: Gametogenesis assay: rounding up, WT/control gametocytes; format: cell-based, Plasmodium falciparum; conditions: for stimulation of rounding up: live gametocytes, zaprinast in absence of XA
Protocol: (§1) P. falciparum gametocytes were produced from the 3D7 clone in human A+ erythrocytes with 10% human serum (National Blood Service), and enriched using Nycodenz (Nycoprep 1.077; Axis-Shield) centrifugation as previously described. For gametogenesis, cells were resuspended at 5 × 10^6 parasites per millilitre and induced with either 20 μM XA or 25–400 μM zaprinast in complete medium, and a reduction (of >5 °C) in temperature. For gametogenesis assays, 10 min post induction, cells were mounted on a wet smear. […] Test reagents including zaprinast, BAPTA-AM, compound 1, and compound 2 were resuspended in DMSO as stock solutions and diluted in complete medium for gametogenesis assays, with the XA stock resuspended in RPMI 1640. The maximum final DMSO concentration in the gametogenesis medium was 0.4%, which was used as a negative control. […] Compound 1 and compound 2 were added at the point of activation with either XA or zaprinast, whereas cells were preincubated with 100 μM BAPTA-AM as previously described. Statistical multivariate analysis was carried out using Poisson regression (Stata 9.2; StataCorp) to compare the effects of genetic background (mutant vs. WT) and experimental replicate (included as categorical data in the analysis) on the rates of rounding up at individual drug concentrations. For each drug concentration, the mutants were tested separately against the WT control, and the resultant output was anti-logged to give the relative risk (and 95% confidence interval) for rounding up with genetic background.

[3] = system: P. falciparum gametocytes; assay: Gametogenesis assay: exflagellation; format: cell-based, Plasmodium falciparum
Protocol: as §1

[4] = system: PfPKGT618Q gametocytes; assay: Gametogenesis assay: rounding up, PfPKGT618Q gametocytes; format: cell-based, Plasmodium falciparum
Protocol: as §1
Supplementary file pbio.0060139.st002.doc: Table S2 Poisson Regression Analysis for Compound 1 Sensitivity of Rounding Up of Both Mutants Compared to WT Each rounding-up measurement was made by counting 200 cells and scoring for rounding up (or not rounding up). At each compound 1 concentration, rounding-up replicate counts for both clones were compared to WT values separately by Poisson regression analysis using the Stata 9.2 package (StataCorp). Where n < 2 (indicated by n.d.), data were excluded from the analysis. Compound 1 concentration (comp1) is shown in micromolar. The p-values from this analysis and the relative risk (RR) of rounding up with genetic background (and 95% confidence intervals [CI]) are shown. (38 KB DOC) Click here for additional data file.

[5] = system: T. gondii; conditions: cited from earlier work
[6] = system: Eimeria; conditions: cited from earlier work
[7] = gametocyte particulate fraction, mean, read-out: IC50, inhibition of native PDE activity, Gametocyte
[8] = schizont particulate fraction, read-out: IC50, inhibition of native PDE activity, Schizont
[9] = ring particulate fraction, read-out: IC50, inhibition of native PDE activity, Ring

| Compound | IC50 [1, 7] [µM] | effect on native PDE enzyme activity [1] | IC50 [1, 8] [µM] | IC50 [1, 9] [µM] | other results |
| --- | --- | --- | --- | --- | --- |
| Cn1c(=O)c2c(ncn2C)n(C)c1=O [Caffeine] | > 200 | little or no effect | > 200 | – | – |
| OCCN(CCO)c1nc(N2CCCCC2)c2nc(N(CCO)CCO)nc(N3CCCCC3)c2n1 [Dipyridamole] | > 200 | – | 7 | 6.5 | – |
| CCOC(=O)c1cnc2c(cnn2CC)c1NN=C(C)C [Etazolate] | – | – | 17.6 | 20.7 | – |
| CC(C)Cn1c(=O)n(C)c(=O)c2[nH]cnc21 [IBMX] | > 200 | little or no effect | > 200 | > 200 | – |
| COc1ccc(Cc2nccc3cc(OC)c(OC)cc23)cc1OC [Papaverine] | > 200 | – | 173 | 63.4 | – |
| COc1ccc(C2CNC(=O)C2)cc1OC1CCCC1 (stereo not drawn) [Rolipram] | > 200 | – | > 200 | > 200 | – |
| CCCc1nn(C)c2c(=O)[nH]c(-c3cc(S(=O)(=O)N4CCN(C)CC4)ccc3OCC)nc12 [Sildenafil] | 75.6 | – | 22.5 | 19.4 | – |
| Cn1c(=O)c2[nH]cnc2n(C)c1=O [Theophylline] | > 200 | little or no effect | > 200 | – | – |
| COc1cc2c(cc1OC)-c1c/c(=N\c3c(C)cc(C)cc3C)n(C)c(=O)n1CC2 [Trequinsin] | 193 | – | 126 | 26.7 | – |
| O=C(O)c1cc(O)c2cccc(O)c2n1 [XA, xanthurenic acid] | – | – | – | – | stimulation of rounding up [2]: became spherical |
| CCCOc1ccccc1-c1nc2nn[nH]c2c(=O)[nH]1 [Zaprinast, zaprinast] | 33.7 ± 1.3 | effective inhibitor | 3 ± 1.2 | 3.5 | stimulation of rounding up [2]: stimulated rounding up; level of rounding up induced compared with XA ([2]; zaprinast 400 μM): almost equivalent to those triggered by XA; stimulation of exflagellation ([3]; in absence of XA): triggered both rounding up and exflagellation in a dose-dependent manner; level of exflagellation induced compared with XA ([3]; zaprinast 400 μM): almost equivalent to those triggered by XA |
| CN(C)Cc1ccn2c(-c3ccnc(N)n3)c(-c3ccc(F)cc3)nc2c1 [compound 2, 4-[7-[(dimethylamino)methyl]-2-(4-fluorophenyl)imidazo[1,2-a]pyridine-3-yl]pyrimidin-2-amine] | – | – | – | – | inhibitory effects on rounding up of PfPKGT618Q gametocytes ([4]; 2 μM, stimulation with zaprinast or XA): absence of inhibitory effects; lower sensitivity of PfPKGT618Q gametocytes than control cells (rounding up) ([4]; range of inhibitor concentrations, approximately): 10–20 fold; effect on infection by T. gondii in mice [5]: cure; inhibition of exflagellation ([3]; gametocytes stimulated with XA or zaprinast): inhibited exflagellation in a dose-dependent manner; difference in sensitivity of exflagellation between control and PfPKGT618Q cell lines ([3]; unpublished data): no significant difference in sensitivity; effect on Eimeria infection in chickens [6]: cure |
